Among the data in patent publication US8399490B2, “Insecticides” (Syngenta Crop Protection LLC, priority 2007, dated 2013) are pest or weed control values, retold here.

SMILES strings stand for the structures. Some results are limits rather than exact numbers.

Holding throughout (assay type): in vivo
For test [1], the system named is Plutella xylostella (diamond back moth). The experiment in a line: Example B3: Plutella xylostella (larvicide, feeding/residual contact activity, preventive), artificial diet MTP. The settings on record: 120 h, L2 larvae on artificial diet, 5 days incubation. How it is done: Plutella xylostella (Diamond Back Moth) (Larvicide, Feeding/Residual Contact Activity, Preventive) 24-well microtiter plate (MTP) with artificial diet is treated with test solutions by pipetting. After drying, the MTP's are infested with larvae (L2) (10-15 per well). After an incubation period of 5 days, samples are checked for larval mortality, antifeedant and growth regulation.

In test [2] the test system is Heliothis virescens (tobacco budworm). The experiment in a line: Example B2: Activity against Heliothis virescens (ovo-larvicide, feeding/contact activity, curative), eggs on artificial diet. Particulars: 96 h, 4 days incubation. The method, then:
Activity Against Heliothis virescens (Tobacco Budworm) (Ovo-Larvicide, Feeding/Contact Activity, Curative) Eggs (0-24 h old) are placed in 24-well microtiter plate on artificial diet and treated with test solutions by pipetting. After an incubation period of 4 days, samples are checked for egg mortality, larval mortality, and growth regulation.

In test [3] the test system is Spodoptera littoralis (Egyptian cotton leafworm). The experiment in a line: Example B1: Activity against Spodoptera littoralis (larvicide, feeding/residual contact activity, preventive), cotton leaf discs. Particulars: foliar, 72 h, L1 larvae on cotton leaf discs, 3 days after treatment. The text has this:
Activity Against Spodoptera littoralis (Egyptian Cotton Leafworm)
(Larvicide, Feeding/Residual Contact Activity, Preventive)
The samples are checked for mortality, repellent effect, feeding behaviour, and growth regulation 3 days after treatment. In this test, compounds listed in Table P above show good activity. In particular compounds P.1, P.2, P.3, P.4, P.5, P.6, P.7, P.8, P.9, P.10, P.11, P.12, P.13, P.14, P.15, P.16, P.17, P.18, P.19, P.20, P.21, P.22, P.23, P.24, P.25, P.26, P.27, P.28, P.29, P.30, P.31, P.32, P.33, P.34, P.35, P.36, P.37, P.38, P.39, P.40, P.41, P.42, P.43, P.44, P.46, P.50, P.51, P.52, P.55, P.56, P.57, P.58, P.59, P.60, P61, P.66, P.67, P.68, P.69, P.70, P.71, P.72, P.73, P.74, P.75, P.76, P.77, P.78, P.83, P.84, P.87 and P.88 show an activity of over 80% at a concentration of 400 ppm.

For the compound `COc1cc(C(=O)Nc2c(Cl)cc3c(c2C(=O)NC2(C4CC4)CC2)OCO3)n(-c2ncccc2Cl)n1` [P.7], the pest or weed control at 400 ppm in test [1], in test [2] and in test [3] was above 80% in each case.

In the case of `CNC(=O)c1c(NC(=O)c2cc(Cl)nn2-c2ncccc2Cl)c(Cl)cc2c1OCO2` [P.9], the pest or weed control at 400 ppm in test [1], in test [2] and in test [3] was above 80% each time.

As to `CCc1cc2c(c(C(=O)NC)c1NC(=O)c1cc(Br)nn1-c1ncccc1Cl)OC(F)(F)O2` [P.33], the pest or weed control at 400 ppm in test [1], in test [2] and in test [3] was above 80% each time.

In the case of `CCc1cc2c(c(C(=O)NC(C)C)c1NC(=O)c1cc(Br)nn1-c1ncccc1Cl)OC(F)(F)O2` [P.34], the pest or weed control at 400 ppm in test [1], in test [2] and in test [3] was above 80% in each case.

With `CNC(=O)c1c(NC(=O)c2cc(OC)nn2-c2ncccc2Cl)c(C)cc2c1OC(F)(F)O2` [P.35], the pest or weed control at 400 ppm in test [1], in test [2] and in test [3] was above 80% in each case.

For `CC(C)NC(=O)c1c(NC(=O)c2cc(C(F)(F)F)nn2-c2ncccc2Cl)c(Cl)cc2c1C(O)CC2` (centres unmarked) [P.48], the pest or weed control at 400 ppm in test [1] is above 80%.

As to `O=C(NC1(C2CC2)CC1)c1c(NC(=O)c2cc(C(F)(F)F)nn2-c2ncccc2Cl)c(Cl)cc2c1C(O)CC2` (centres unmarked) [P.51], the pest or weed control at 400 ppm in test [1], in test [2] and in test [3] was above 80% each time.

In the case of `CC(C)NC(=O)c1c(NC(=O)c2cc(C(F)(F)F)nn2-c2ncccc2Cl)c(Cl)cc2c1/C(=N/O)CC2` [P.52], the pest or weed control at 400 ppm in test [1], in test [2] and in test [3] was above 80% in each case.

`O=C1CCc2cc(Cl)c(NC(=O)c3cc(Br)nn3-c3ncccc3Cl)c(C(=O)NC3(C4CC4)CC3)c21` [P.53] had a pest or weed control at 400 ppm in test [1] above 80%.

`O=C(NC1(C2CC2)CC1)c1c(NC(=O)c2cc(Br)nn2-c2ncccc2Cl)c(Cl)cc2c1C(F)CC2` (centres unmarked) [P.55]: the pest or weed control at 400 ppm in test [1], in test [2] and in test [3] was above 80% each time.

In the case of `CC(C)NC(=O)c1c(NC(=O)c2cc(Br)nn2-c2ncccc2Cl)c(Cl)cc2c1C(F)CC2` (centres unmarked) [P.56], the pest or weed control at 400 ppm in test [1], in test [2] and in test [3] was above 80% throughout.

As to `CCNC(=O)c1c(NC(=O)c2cc(OCC(F)(F)F)nn2-c2ncccc2Cl)c(Cl)cc2c1OCO2` [P.58], the pest or weed control at 400 ppm in test [1], in test [2] and in test [3] was above 80% throughout.

As to `CNC(=O)c1c(NC(=O)c2cc(Br)nn2-c2ncccc2Cl)ccc2c1S(=O)(=O)C(C)C2` (centres unmarked) [P.59], the pest or weed control at 400 ppm in test [1], in test [2] and in test [3] was above 80% each time.

Regarding `CC1Cc2ccc(NC(=O)c3cc(Br)nn3-c3ncccc3Cl)c(C(=O)NC3CC3)c2S1(=O)=O` (centres unmarked) [P.61], the pest or weed control at 400 ppm in test [1], in test [2] and in test [3] was above 80% each time.

Turning to `CCNC(=O)c1c(NC(=O)c2cc(C(F)F)nn2-c2ncccc2Cl)c(C)cc2c1OCO2` [P.72], the pest or weed control at 400 ppm in test [1], in test [2] and in test [3] was above 80% in each case.

For the compound `CC(C)NC(=O)c1c(NC(=O)c2cc(C(F)F)nn2-c2ncccc2Cl)c(Br)cc2c1OC(C)C2` (centres unmarked) [P.84], the pest or weed control at 400 ppm in test [1], in test [2] and in test [3] was above 80% each time.

For `CC(C)NC(=O)c1c(NC(=O)c2cc(Br)nn2-c2ncccc2Cl)c(Br)cc2c1S(=O)(=O)C(C)C2` (centres unmarked) [P.87], the pest or weed control at 400 ppm in test [1], in test [2] and in test [3] was above 80% in each case.

The pest or weed control is the degree to which the test organism was suppressed or injured, in per cent. A higher pest or weed control goes with strong suppression.
